# Where “and” joins values, the source holds several entries; their conditions need not be identical. Equal entries are not always repeated. Where two headings read alike, the source gives them in different places.
# What was measured:
# [1] = test system: Reconstructed Human Epidermis; test: In vitro skin irritation: reconstructed human epidermis test (OECD TG 439); assay type: cell-based; set-up: Viability Mean: concentration or dose not given beside the values
# Bovine Corneal = test: Eye irritation: Bovine Corneal Opacity and Permeability Test (OECD TG 437); conditions: positive control, no test concentration printed (/)
# Text: Basis: Bovine Corneal Opacity and Permeability Test, OECD TG 437 (2020).
# [2] = Foaming test, modified Ross-Miles method (GB/T7462-1994); assay type: physicochemical; conditions: 2.5 g/L, 50 ± 0.5 °C
# Method: Conditions: test solution concentration: 2.5 g/L; test temperature: 50 ± 0.5 °C; test water: soft water/hard water.
Compound,IL-1α content [1],Viability Mean [1],Foam volume at 30 s ([2]; soft water),Foam volume at 3 min ([2]; soft water),Foam volume at 5 min ([2]; soft water),also measured
CCCCCCCCCCCC(=O)N[C@@H](C)C(=O)O.N=C(N)NCCC[C@H](N)C(=O)O [LA-Arg],3.5 ± 0.38 pg/mL,97.40%,–,–,–,–
CCCCCCCCCCCC(=O)NC(C)C(=O)[O-].[Na+] (stereo not shown) [LA-NaOH],3.88 ± 5.28 pg/mL,86.99%,–,–,–,–
"CCCCCCCCCCCC(=O)N[C@@H](C)C(=O)O [Lauroyl alanine (LA), Lauroyl alanine]",2.07 ± 0.59 pg/mL,95.52%,–,–,–,–
CCCCCCCCCCCCOS(=O)(=O)[O-].[Na+] [Positive control (PC)],89.45 ± 10.06 pg/mL,4.03%,–,–,–,–
"CCO [Positive control (absolute ethanol), absolute ethanol]",–,–,–,–,–,In vitro irritancy score (IVIS) (Bovine Corneal): 32.3545
"CCCCCCCCCCCCOS(=O)(=O)[O-].[Na+] [Sodium dodecyl sulfate (K12), Sodium dodecyl sulfate]",96.26 ± 3.21 pg/mL,–,–,–,–,Viability Mean ([1]; human): 40.79%
Lauroyl alanine-arginine,–,–,380 mL,340 mL,335 mL,Foam volume at 30 s ([2]; hard water): 570 mL and 580 mL; Foam volume at 3 min ([2]; hard water): 540 mL and 560 mL and 565 mL; Foam volume at 5 min ([2]; hard water): 530 mL and 545 mL and 550 mL
Sodium laureth sulfate [Sodium laureth sulfate (AES)],20.59 ± 5.27 pg/mL,57.12%,310 mL,250 mL,210 mL,–
potassium cocoyl glycinate [GCK30],–,–,430 mL,390 mL,360 mL,–
sodium cocoyl alaninate [ACS30],–,–,330 mL,200 mL,140 mL,–
sodium cocoyl glycinate [GC30],–,–,460 mL,430 mL,400 mL,–
sodium cocoylmethyl taurate [CMT-35],–,–,310 mL,260 mL,230 mL,–
